“Also recorded” adds a separate entry of the source. Where two headings read alike, the source gives them in different places.
How the values were obtained:
[1] = Permeation across symmetric 100% DOPC DIBs in droplet pairs, fluorescence microscopy; assay type: in vitro ADME; conditions: for Papp at 50 µM: not told, droplet pairs, N = 27; for Papp at 50 µM / kad / kda: acceptor 100% DOPC; for Papp at 50 µM / Permeation across the DIB (observation in words): 37 °C; for Permeation across the DIB (observation in words): pH 6.0, 100% DOPC DIBs, calcein observed for 2900 minutes
Protocol: The lipid-out approach was used to add phospholipids to the water/oil interface, i.e., lipids were dissolved in the oil phase. We purchased 1,2-dioleoyl-sn-glycero-3-phosphocholine (DOPC) and 1,2-dioleoyl-sn-glycero-3-phospho-L-serine (DOPS) as solutions in chloroform from Avanti Polar Lipids (Alabaster, AL, U.S.A.). We placed the required lipids in pear-shaped flasks and removed the chloroform with a rotary evaporator (Büchi Labortechnik AG, Flawil, Switzerland) forming a film. The lipid film was dissolved in a 1:1 (v/v) mix of hexadecane (reagent plus grade, Sigma–Aldrich) and squalane (Sigma–Aldrich) in an ultrasonication bath at 50 °C for ∼30 min. The final phospholipid concentration in oil was 0.625 mM for donor droplets and 1.25 mM for acceptor droplets.
We used either 100% DOPC or 30% DOPC and 70% DOPS mixtures (mole percentage). We filtrated the phospholipid-oil solution before use (0.45 μm pore size, RC 4 Male Luer Slip Minisart filters, Huberlab, Switzerland).
All aqueous solutions were prepared in LC–MS grade water (Fisher Scientific, Loughborough, U.K.). We used as buffers 20 mM 2-morpholinoethanesulfonic acid (MES, pH 6.0, Alfa Aesar), 20 mM phosphate buffer (pH 7.0, Acros Organics), 50 mM 4-(2-hydroxyethyl)-1-piperazineethanesulfonic acid (HEPES, pH 7.4, gibco, Paisley, U.K.), or 20 mM tris(hydroxymethyl)aminomethane (Tris, pH 8.0, VWR). […] PEG4-NBD was synthesized from succinimidyl 6-(N-(7-nitrobenz-2-oxa-1,3-diazol-4-yl)amino)hexanoate (NBD NHS-ester, Molecular Probes Life Technologies, Eugene, OR, U.S.A.) and amine-terminated poly(ethylene glycol)-4 alcohol (Amino-PEG4-OH, Quanta Biodesign, Plain City, OH, U.S.A.).[26] A 1:1 molar ratio of the NBD NHS-ester and Amino-PEG4-OH was reacted in a 10:1 (v/v) solution of chloroform (Sigma–Aldrich) and triethylamine (Brenntag Schweizerhall, Basel, Switzerland). The reaction was held at 45 °C for 2 h, followed by 22 °C for 12 h. Afterward, the reaction products were separated with a preparative liquid chromatography system (Prep 150 LC system, Waters). The mass of the product PEG4-NBD was confirmed with an LC–MS system (Ultimate 3000 MSQ, Dionex).
We placed the microarray plate in a removable temperature-controlled holder (T = 37 °C) with a transparent bottom, which was mounted on a motorized XY stage (HLD117, Prior) of an inverted fluorescence microscope (Olympus IX73). We carried out the experiments in an oil bath to reduce droplet evaporation. The plate holder was filled with ∼4 mL of 1:1 (v/v) hexadecane:squalane without phospholipids and 50 μL of water in all four edges to reduce droplet shrinkage. We used a self-made microfluidic T-junction device made of polycarbonate (PC) to generate droplets of ∼25 nL by continuously injecting the aqueous phase (flow rate: 0.5 μL/min) into the immiscible oil phase (flow rate: 2 μL/min). The droplets were transported through a capillary onto the microarray plate. In this time, the phospholipids in the oil aligned along the water/oil interface and formed a monolayer.[27],[28] We mounted the end of the capillary on a motorized Z stage (M-403.2PD, Physik Instrumente, Karlsruhe, Germany). The generated droplets were detected in the capillary holder with a custom-made optical droplet detection system.[22] This was utilized to selectively deposit a single droplet per predefined position by synchronizing droplet generation and capillary and microarray movements. All components of the microscope and the capillary were controlled by the software YouScope for automated microscopy (R2018, v2.1.0).[29]
Fluorescence and bright-field pictures were recorded using a light source (Lumen 300, Prior and TH4-200, Olympus) and a complementary metal oxide semiconductor (CMOS) camera (Zyla 4.2, Andor) connected to the Olympus IX73 microscope. To track fluorescein, calcein, and PEG4-NBD, a blue excitation filter set (exciter HQ470/40x, dichroic 500dcxr BS, and emitter E515lpv2; Chroma Technology Corp, Bellows Falls, VT, U.S.A.) was used. […]

[2] = Permeation across symmetric and asymmetric DIBs containing 30% DOPC 70% DOPS, droplet pairs, fluorescence microscopy; assay type: in vitro ADME; conditions: not told
Protocol: We placed the microarray plate in a removable temperature-controlled holder (T = 37 °C) with a transparent bottom, which was mounted on a motorized XY stage (HLD117, Prior) of an inverted fluorescence microscope (Olympus IX73). We carried out the experiments in an oil bath to reduce droplet evaporation. […] The generated droplets were detected in the capillary holder with a custom-made optical droplet detection system.[22] […]
Fluorescence and bright-field pictures were recorded using a light source (Lumen 300, Prior and TH4-200, Olympus) and a complementary metal oxide semiconductor (CMOS) camera (Zyla 4.2, Andor) connected to the Olympus IX73 microscope. […]
The recorded fluorescence signals were evaluated using Fiji[30] and OriginPro (2019, 9.6, OriginLab Corporation). First, we subtracted the background fluorescence for data evaluation. In a next step, we normalized the fluorescence to compensate for potential leakage into the oil phase, membrane partitioning, shrinkage of droplets, or fluorescence bleaching. For the normalization, the sum of fluorescence of all droplets in the first image was set to 100%. […]

[3] = Label-free permeation analysis of droplet pairs by LC-MS; assay type: in vitro ADME; conditions: not told, pH 6, pH 6.0, LC-MS, N = 4
Protocol: For subsequent LC–MS analysis, we used a recently developed protocol to split the droplet pairs.[24] The capillary used before for spotting of droplets was flushed with hexadecane/squalane (1:1) and placed between two connecting droplets to separate the droplet pairs. To extract individual droplets, the capillary was flushed with fluorinated oil (HFE-7500, 3 M Novec, Hadfield, U.K.) and connected to a 50 μL glass syringe (Hamilton, Switzerland). The center of the capillary was lowered to a height where it slightly squeezed the droplet. Subsequently, by slowly pulling the glass syringe, the droplet was aspirated. Afterward, the capillary was moved over a small tube (TreffLab Degersheim, Switzerland), and the aspirated droplet was ejected. […]
The sample was analyzed in a 1260 II Infinity LC Quaternary system coupled to a single quadrupole atmospheric pressure ionization-electrospray (API-ES) G6130B mass spectrometer (Agilent). […] All analytes were detected with selected ion monitoring (SIM) in a positive mode. […]
Equations 1 and 2 were fitted to the data with OriginPro. […] Data from every droplet pair were individually fitted and evaluated. […] We further approximated that the area of the droplet interface bilayer is circular,[32] and we calculated the area (A) for the individual droplet pairs via the measured droplet interface bilayer diameter from the bright-field images (as indicated in Table S1). […]

[4] = parameters: method as in PMID 19560324; conditions: calcein permeation across liposome membranes; cited from earlier work
[5] = Permeation over multiple compartments (one donor, four acceptor droplets in series); assay type: in vitro ADME; conditions: for Papp at 50 µM: not told
Protocol: For several acceptor droplets in series, the numerical solutions of a differential equation system according to eqs 5 to 7 were fitted to the normalized fluorescence data of donor and acceptor droplets. The solutions of the differential equation system and the fitting were performed with the Matlab (version 2018a, Mathworks) functions ode15s, fmincon (minimizing the sum of squared residues), and MultiStart. [drawing 5] 5 [drawing 6] 6 [drawing 7] 7
W(n) is the fluorescence in the water phase of droplet n, k is the mass transfer rate constant (the fit parameter), and N is the total number of donor and acceptor droplets. The expression N > 2 equals 1 if N > 2 and 0 if N ≤ 2, and n < N equals 1 if n < N and 0 if n ≥ N.
Our platform allows for spotting droplet lines, instead of just pairs. With this, we can monitor how permeation and diffusion of compounds progress over several compartments. For creation of multiple droplets, connected via DIBs, we used a modified glass plate, where cavities were created in lines. Several fluorophore-free acceptor droplets were deposited in this line accordingly. The last droplet contained fluorescein, which permeates over the multiple compartments. […] Permeation at pH 7.4 was slower, which was expected from the experiments with the droplet pairs and from the ionization state of fluorescein (Supporting Information, Figure S11). The Papp,fit at pH 7.4 was (19.01 ± 1.16) × 10^–6 cm/s, higher than determined with the droplet pairs at pH 7.0 (7.05 ± 0.42) × 10^–6 cm/s. […] The lag phase observed at pH 7.0 (Supporting Information Figure S5) has a higher impact on the fit parameters in the assay with only two droplets (reducing the apparent rate constants) than with several droplets in series.

[6] = cited from earlier work

Q: Which Papp at 50 µM ([1]; pH 6, donor 100% DOPC) does the source give for `CC/N=c1\cc2oc3cc(NCC)c(C)cc3c(-c3ccccc3C(=O)OCC)c-2cc1C` [rhodamine 6G] here?
A: 10.4 ×10⁻⁶ cm/s

Q: What about the kad ([1]; pH 6, donor 100% DOPC) of the same compound?
A: 166.8 × 10-6 (1/s)

Q: And the kda ([1]; pH 6, donor 100% DOPC)?
A: 166.8 × 10-6 (1/s)

Q: What about the Papp at 50 µM ([2]; pH 6, pH 6, donor 30% DOPC 70% DOPS, acceptor 30% DOPC 70% DOPS (symmetric)) of the same compound?
A: 12.1 ×10⁻⁶ cm/s

Q: And the Papp at 50 µM ([2]; pH 6, pH 6, donor 30% DOPC 70% DOPS, acceptor 100% DOPC (asymmetric))?
A: 19.6 ×10⁻⁶ cm/s

Q: And the Papp at 50 µM ([2]; pH 6, pH 6, donor 100% DOPC, acceptor 30% DOPC 70% DOPS (asymmetric))?
A: 6.56 ×10⁻⁶ cm/s

Q: And the Papp at 50 µM ([3]; eq 3, fit of all data, read-out: Papp.fit (MS))?
A: 6.28 ± 0.68 ×10⁻⁶ cm/s

Q: What about the Papp at 50 µM ([3]; eq 4, sink condition, first two data points, read-out: Papp.sink (MS)) of the same compound?
A: 9.42 ± 2.17 ×10⁻⁶ cm/s

Q: For `O=C(O)CN(CC(=O)O)Cc1cc2c(cc1O)Oc1cc(O)c(CN(CC(=O)O)CC(=O)O)cc1C21OC(=O)c2ccccc21` [calcein], which “Permeation across the DIB (observation in words)” value (from here on “Permeation across the DIB”) [1] is on record?
A: no permeation was observed

Q: What about the “Permeation across the DIB” value ([1]; listed as Calcein) of the same compound?
A: did not permeate; also recorded: No permeation observed

Q: And the permeability coefficients [4]?
A: 10^–10 to 10^–11 cm/s

Q: For `O=C1OC2(c3ccc(O)cc3Oc3cc(O)ccc32)c2ccccc21` [fluorescein], which Papp at 50 µM ([1]; pH 6, donor 100% DOPC) is on record?
A: 193 ± 17.8 ×10⁻⁶ cm/s

Q: And the Papp at 50 µM ([1]; pH 7, donor 100% DOPC)?
A: 7.05 ± 0.42 ×10⁻⁶ cm/s

Q: What about the Papp at 50 µM ([1]; pH 8, donor 100% DOPC) of the same compound?
A: 1.05 ± 0.06 ×10⁻⁶ cm/s

Q: What about the “Permeation across the DIB” value [1] of the same compound?
A: permeated across the DIB

Q: What about the kad ([1]; pH 6, donor 100% DOPC) of the same compound?
A: 4046.0 × 10-6 (1/s)

Q: And the kda ([1]; pH 6, donor 100% DOPC)?
A: 4046.0 × 10-6 (1/s)

Q: And the kad ([1]; pH 7, donor 100% DOPC)?
A: 145.0 × 10-6 (1/s)

Q: And the kda ([1]; pH 7, donor 100% DOPC)?
A: 145.0 × 10-6 (1/s)

Q: And the kad ([1]; pH 8, donor 100% DOPC)?
A: 20.3 × 10-6 (1/s)

Q: And the kda ([1]; pH 8, donor 100% DOPC)?
A: 20.3 × 10-6 (1/s)

Q: And the Papp at 50 µM ([5]; pH 6, one donor to four acceptor droplets, 100% DOPC, eqs 5–7 and 3, N = 12 droplet networks)?
A: 200 ± 9.73 ×10⁻⁶ cm/s

Q: What about the Papp at 50 µM ([5]; pH 7.4, one donor to four acceptor droplets, eqs 5–7 and 3) of the same compound?
A: 19 ± 1.16 ×10⁻⁶ cm/s

Q: What about the “Time until equilibrium was reached in all five droplets” value ([5]; pH 6, five droplets in series) of the same compound?
A: approximately 30 min

Q: And the permeation constant ([6]; pH 6.4, Nisisako et al.)?
A: 60.0 ± 22.4 × 10^–6 cm/s

Q: And the permeation constant ([6]; pH 7.4, Schlicht and Zagnoni)?
A: 2.01 ± 1.46 × 10^–6 cm/s

Q: And the permeation constant ([6]; pH 7.5, Nisisako et al.)?
A: 5.1 ± 1.8 × 10^–6 cm/s
